Legend:
CU-ACC1 = assay: ExcessHSA synergy score with TAK-243; higher = less synergy (negative = synergistic); conditions: combined with: TAK-243 (MLN-7243) matrix, 9-point 1:2 dilution
Description: (§1)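 Each drug was tested at 9 points with 1:2 dilution; viability was read by CellTiter-Glo as in the single-agent screen. Synergy is scored as ExcessHSA (sum of excess over highest single agent; negative = synergy) and the Beta interaction parameter (<1 synergy).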

NCI-H295R = assay: as above; conditions: combined with: TAK-243 (MLN-7243) matrix, 9-point 1:2 dilution
Description: as §1

O=C(O)c1ccc(CN2CCC(CN[C@@H]3C[C@H]3c3ccccc3)CC2)cc1
ExcessHSA synergy score with TAK-243 (CU-ACC1): -27.5 | ExcessHSA synergy score with TAK-243 (NCI-H295R): 23.7

COc1cc([C@@H](CC(=O)O)c2ccc(C)c(CN3C[C@@H](C)Oc4ccccc4S3(=O)=O)c2)cc2nnn(C)c12 [KI-696]
ExcessHSA synergy score with TAK-243 (CU-ACC1): 533 | ExcessHSA synergy score with TAK-243 (NCI-H295R): 351

COc1ncnc(C2CC2)c1-c1ncc2cnn(Cc3ccc(-c4nc(C(F)(F)F)cn4C(C)C)cc3)c2n1 [KSQ-4279]
ExcessHSA synergy score with TAK-243 (CU-ACC1): -545 | ExcessHSA synergy score with TAK-243 (NCI-H295R): -796

CC1(C)CC[C@]2(NC(=O)C(C)(F)F)CC[C@]3(C)[C@H](C(=O)C=C4[C@@]5(C)C=C(C#N)C(=O)C(C)(C)[C@@H]5CC[C@]43C)[C@@H]2C1 [Omaveloxolone (RTA-408)]
ExcessHSA synergy score with TAK-243 (CU-ACC1): 367 | ExcessHSA synergy score with TAK-243 (NCI-H295R): 323

O=C1NC(=O)C(c2cnc3ccccn23)=C1c1cn2c3c(cc(F)cc13)CN(C(=O)N1CCCCC1)CC2
ExcessHSA synergy score with TAK-243 (CU-ACC1): 432 | ExcessHSA synergy score with TAK-243 (NCI-H295R): 305

COC(=O)[C@]12CCC(C)(C)C[C@H]1[C@H]1C(=O)C=C3[C@@]4(C)C=C(C#N)C(=O)C(C)(C)[C@@H]4CC[C@@]3(C)[C@]1(C)CC2 [CDDO-Me]
ExcessHSA synergy score with TAK-243 (CU-ACC1): 94.3 | ExcessHSA synergy score with TAK-243 (NCI-H295R): 271

From the supplement of paper PMC10949913
